# Results as given in US9487749B2 (priority 2009, dated 2016).
# Several values for one entry are separate records, joined by “and”; a condition that tells them apart may be missing. Identical values can stand only once.
# Assays:
# Bifidobacterium bifidum = assay: Growth of Bifidobacterium bifidum in MRS broth fortified with MSM (anaerobic); format: cell-based
# Method: Each organism (Lactobacillus rhamnosus, Lactobacillus acidophilus, and Bifidobacterium bifidum) was grown in MRS bacterial growth medium (broth) and plated on MRS agar at different time intervals. Results are expressed in colony forming units per milliliter (cfu/mL). […] All bacterial organisms were incubated at 35° C. +/−2° C. for the duration of the study. […] All preparations and plating were conducted at room temperature. […] Test samples were plated in triplicate at each test date and the averages are reported. Bifidobacterium bifidum, a common microbe used in probiotics, was also tested. All Bifidobacterium samples were incubated under anaerobic conditions.
# [1] = system: White Labs Edinburgh Ale yeast; assay: Fermentation efficiency in production of beer (Scotch Ale) with 0.5% MSM; format: cell-based; details: for F.G. (Adjusted for Alc and Temp): 0.5% MSM fermentor
# From the text: This positive impact includes such organisms as fungi, yeast, and bacteria. Yeast cultures are involved in the production of beer during the fermentation process to produce ethanol and carbon dioxide. […] Wort is the liquid extracted from the mashing process during the brewing of beer or whisky. Wort contains the sugars that are fermented by the brewing yeast to produce alcohol. […] This Procedure is detailed below. […] (1) glass jugs, airlocks and funnel were thoroughly cleaned and then rinsed with beer sanitizer; (2) 1000 mLs of water was boiled then 100 grams of DME was added; (3) sample was boiled for 10 minutes; […] The Treatment Starter batch was then placed in a sanitized 64 ounce glass jug using to which 1-vial of White Labs Edinburgh Ale yeast was added. The airlock was applied and the entire vessel was placed in a dark room at room temperature for 48 hours. […] (1) glass jugs, airlocks and funnel were thoroughly cleaned and then rinsed with beer sanitizer; (2) 1000 mLs of water was boiled then 100 grams of DME was added; (3) sample was boiled for 10 minutes; (4) sample was removed from heat; and (5) solution was allowed to cool to 72° F. The Treatment Starter batch was then placed in a sanitized 64 ounce glass jug using to which 1-vial of White Labs Edinburgh Ale yeast was added. The airlock was applied and the entire vessel was placed in a dark room at room temperature for 48 hours. […] Materials to prepare the mash included the following: 18 lb of American 2-Row base grain; 3 lb of Crystal Malt 40 L specialty grain; 1 lb […] specialty grain; and water. A mash tun (a vessel used in the mashing process to convert the starches in crushed grains into sugars for fermentation) and Brew kettle were cleaned with powdered brewers wash and rinsed thoroughly. The mash tun was then sanitized (San Star Brewing Sanitizer). The following grains were crushed and milled for mashing: 18 lb of American 2-Row base grain; 3 lb of Crystal Malt 40 L specialty grain; and 1 lb […] specialty grain. […] The crushed grains were then added and the solution was mixed thoroughly. The lid was attached and the solution allowed to mash for 60 minutes. […] Strike water was preheated to 168° F., added to the mash tun and mix thoroughly with grain. The mixture was allowed to incubate for 10 minutes. […] After preparing the mash, the brewing process was started. […] Equipment was cleaned thoroughly with PBW. The wort chiller and filtered air stone were sanitized with brewing sanitizer (San Star Brewing Sanitizer). […] At 30 minutes of boil, a second aliquot (0.5 ounces) of Cascade hops was added. At 40 minutes of boil, third aliquot (0.5 ounces) of Cascade hops was added as well as 2 teaspoons of […] Moss. At 50 minutes of boil, a fourth aliquot (0.5 ounces) of Cascade hops was added. […] Each fermentor was Brix tested every 24 hours for 21 days. Both fermentors were aerated for 25 minutes with sanitized filtered air stone. MSM infused yeast was pitched into treatment fermentor vessel while unaltered yeast was pitched into control fermentor vessel. Blow-off tubes were attached to both fermentors and fermentation was allowed to proceed for 21 days.
# [2] = system: Lactobacillus acidophilus; assay: Growth of Lactobacillus acidophilus in Acidophilus milk fortified with MSM; format: cell-based
# From the text: 31, 2013. […] The Acidophilus milk was low fat (Darigold).
smiles,measurement,setting,value
"CS(C)(=O)=O [MSM, Methylsulfonylmethane]",log increase of Bifidobacterium,Bifidobacterium bifidum; 0.04% MSM,One
same,log higher than the 0% MSM control,"Bifidobacterium bifidum; 0.04% and 0.2% MSM samples, 48 hours",1 log
same,log increase of Bifidobacterium,Bifidobacterium bifidum; 0.2% MSM,2 log
same,F.G. (Adjusted for Alc and Temp),[1]; Day 1,1.026
same,F.G. (Adjusted for Alc and Temp),[1]; Day 2,1.018
same,F.G. (Adjusted for Alc and Temp),[1]; Day 3,1.016
same,F.G. (Adjusted for Alc and Temp),[1]; Day 4,1.016
same,F.G. (Adjusted for Alc and Temp),[1]; Day 5,1.015
same,F.G. (Adjusted for Alc and Temp),[1]; Day 6,1.015
same,F.G. (Adjusted for Alc and Temp),[1]; Day 7,1.015
same,F.G. (Adjusted for Alc and Temp),[1]; Day 8,1.015
same,F.G. (Adjusted for Alc and Temp),[1]; Day 9,1.015
same,F.G. (Adjusted for Alc and Temp),[1]; Day 10,1.015
same,F.G. (Adjusted for Alc and Temp),[1]; Day 11,1.015
same,F.G. (Adjusted for Alc and Temp),[1]; Day 12,1.015
same,F.G. (Adjusted for Alc and Temp),[1]; Day 13,1.015
same,F.G. (Adjusted for Alc and Temp),[1]; Day 14,1.015
same,F.G. (Adjusted for Alc and Temp),[1]; Day 15,1.015
same,F.G. (Adjusted for Alc and Temp),[1]; Day 16,1.015
same,F.G. (Adjusted for Alc and Temp),[1]; Day 17,1.015
same,F.G. (Adjusted for Alc and Temp),[1]; Day 18,1.015
same,F.G. (Adjusted for Alc and Temp),[1]; Day 19,1.015
same,F.G. (Adjusted for Alc and Temp),[1]; Day 20,1.015
same,F.G. (Adjusted for Alc and Temp),[1]; Day 21,1.015
same,time to maximum fermentation,[1]; 0.5% MSM treatment batch,5 days
same,sooner time of completion,[1]; 0.5% MSM treatment batch vs control (6 days),17-25%
same,time to activity,[1]; fermentor with 0.5% MSM,3.5 h
same,activity sooner than the control,[1]; fermentor with 0.5% MSM (3.5 hours compared to 9 hours),58%
same,activity sooner than the control,[1]; yeast starter with 0.5% MSM (2 hours compared to 10 hours),80%
same,peak growth,[2]; 0.5% MSM,10.72 logs
same,log growth lower than control,"[2]; 0.5% MSM, listed as order: Day 14, Day 28",0.74 logs and 1.00 logs
same,peak growth,[2]; 5.0% MSM,10.89 log
same,log increase in growth within the first 8 hours (duplicates),[2]; […] MSM,2.27 logs
same,peak growth,[2]; […] MSM,10.59 logs
same,log growth lower than control,"[2]; […] MSM, Day 28",0.68 logs
same,Growth of Lactobacillus acidophilus in Milk fortified with MSM average,"[2]; 0.50% MSM, Day 7",10.68 log
same,Growth of Lactobacillus acidophilus in Milk fortified with MSM average,"[2]; 0.50% MSM, Day 14",6.22 log
same,Log Growth of Lactobacillus acidophilus in Milk fortified with MSM,"[2]; 0.50% MSM, Day 21",5.37 log
same,Growth of Lactobacillus acidophilus in Milk fortified with MSM average,"[2]; 0.50% MSM, Day 21",5.37 log
same,Growth of Lactobacillus acidophilus in Milk fortified with MSM average,"[2]; 0.50% MSM, Day 28",3.00 log
same,Growth of Lactobacillus acidophilus in Milk fortified with MSM average,"[2]; 0.50% MSM, hour 0",6.98 log
same,Log Growth of Lactobacillus acidophilus in Milk fortified with MSM,"[2]; 0.50% MSM, hour 8",9.06 log and 9.00 log
same,Growth of Lactobacillus acidophilus in Milk fortified with MSM average,"[2]; 0.50% MSM, hour 8",9.03 log
same,Growth of Lactobacillus acidophilus in Milk fortified with MSM average,"[2]; 0.50% MSM, hour 24",9.38 log
same,Log Growth of Lactobacillus acidophilus in Milk fortified with MSM,"[2]; 0.50% MSM, hour 32",9.12 log
same,Growth of Lactobacillus acidophilus in Milk fortified with MSM average,"[2]; 0.50% MSM, hour 32",9.16 log
same,Log Growth of Lactobacillus acidophilus in Milk fortified with MSM,"[2]; 0.50% MSM, hour 48",8.55 log and 8.69 log
same,Growth of Lactobacillus acidophilus in Milk fortified with MSM average,"[2]; 0.50% MSM, hour 48",8.62 log
same,Log Growth of Lactobacillus acidophilus in Milk fortified with MSM,"[2]; 0.50% MSM, hour 56",8.77 log and 8.69 log
same,Growth of Lactobacillus acidophilus in Milk fortified with MSM average,"[2]; 0.50% MSM, hour 56",8.73 log
same,Log Growth of Lactobacillus acidophilus in Milk fortified with MSM,"[2]; 0.50% MSM, hour 72",8.56 log and 8.67 log
same,Growth of Lactobacillus acidophilus in Milk fortified with MSM average,"[2]; 0.50% MSM, hour 72",8.62 log
same,Growth of Lactobacillus acidophilus in Milk fortified with MSM average,"[2]; 0.50% MSM, hour 80",9.72 log
same,Growth of Lactobacillus acidophilus in Milk fortified with MSM average,"[2]; 0.50% MSM, hour 96",10.09 log
same,Growth of Lactobacillus acidophilus in Milk fortified with MSM average,"[2]; 0.50% MSM, hour 104",9.50 log
same,Growth of Lactobacillus acidophilus in Milk fortified with MSM average,"[2]; 5.00% MSM, Day 7",10.71 log
same,Growth of Lactobacillus acidophilus in Milk fortified with MSM average,"[2]; 5.00% MSM, Day 14",8.04 log
same,Log Growth of Lactobacillus acidophilus in Milk fortified with MSM,"[2]; 5% MSM, Day 21",5.64 log and 5.48 log
same,Growth of Lactobacillus acidophilus in Milk fortified with MSM average,"[2]; 5.00% MSM, Day 21",5.56 log
same,Log Growth of Lactobacillus acidophilus in Milk fortified with MSM,"[2]; 5% MSM, Day 28",2.52 log
same,Growth of Lactobacillus acidophilus in Milk fortified with MSM average,"[2]; 5.00% MSM, Day 28",2.52 log
same,Log Growth of Lactobacillus acidophilus in Milk fortified with MSM,"[2]; 5% MSM, hour 0",6.56 log and 6.47 log
same,Growth of Lactobacillus acidophilus in Milk fortified with MSM average,"[2]; 5.00% MSM, hour 0",6.52 log
same,Growth of Lactobacillus acidophilus in Milk fortified with MSM average,"[2]; 5.00% MSM, hour 8",8.91 log
same,Growth of Lactobacillus acidophilus in Milk fortified with MSM average,"[2]; 5.00% MSM, hour 24",9.29 log
same,Growth of Lactobacillus acidophilus in Milk fortified with MSM average,"[2]; 5.00% MSM, hour 32",9.26 log
same,Log Growth of Lactobacillus acidophilus in Milk fortified with MSM,"[2]; 5% MSM, hour 48",8.78 log and 8.72 log
same,Growth of Lactobacillus acidophilus in Milk fortified with MSM average,"[2]; 5.00% MSM, hour 48",8.75 log
same,Log Growth of Lactobacillus acidophilus in Milk fortified with MSM,"[2]; 5% MSM, hour 56",8.88 log and 8.7 log
same,Growth of Lactobacillus acidophilus in Milk fortified with MSM average,"[2]; 5.00% MSM, hour 56",8.79 log
same,Log Growth of Lactobacillus acidophilus in Milk fortified with MSM,"[2]; 5% MSM, hour 72",8.75 log and 8.63 log
same,Growth of Lactobacillus acidophilus in Milk fortified with MSM average,"[2]; 5.00% MSM, hour 72",8.69 log
same,Growth of Lactobacillus acidophilus in Milk fortified with MSM average,"[2]; 5.00% MSM, hour 80",9.79 log
same,Growth of Lactobacillus acidophilus in Milk fortified with MSM average,"[2]; 5.00% MSM, hour 96",10.20 log
same,Growth of Lactobacillus acidophilus in Milk fortified with MSM average,"[2]; 5.00% MSM, hour 104",9.56 log
same,Growth of Lactobacillus acidophilus in Milk fortified with MSM average,"[2]; […] MSM, Day 7",10.50 log
same,Growth of Lactobacillus acidophilus in Milk fortified with MSM average,"[2]; […] MSM, Day 14",7.33 log
same,Growth of Lactobacillus acidophilus in Milk fortified with MSM average,"[2]; […] MSM, Day 21",5.465 log
same,Growth of Lactobacillus acidophilus in Milk fortified with MSM average,"[2]; […] MSM, Day 28",3.325 log
same,Growth of Lactobacillus acidophilus in Milk fortified with MSM average,"[2]; […] MSM, hour 0",6.69 log
same,Growth of Lactobacillus acidophilus in Milk fortified with MSM average,"[2]; […] MSM, hour 8",9.02 log
same,Log Growth of Lactobacillus acidophilus in Milk fortified with MSM,"[2]; […] MSM, hour 24",9.01 log
same,Growth of Lactobacillus acidophilus in Milk fortified with MSM average,"[2]; […] MSM, hour 24",9.13 log
same,Growth of Lactobacillus acidophilus in Milk fortified with MSM average,"[2]; […] MSM, hour 32",9.09 log
same,Growth of Lactobacillus acidophilus in Milk fortified with MSM average,"[2]; […] MSM, hour 48",8.85 log
same,Growth of Lactobacillus acidophilus in Milk fortified with MSM average,"[2]; […] MSM, hour 56",8.76 log
same,Growth of Lactobacillus acidophilus in Milk fortified with MSM average,"[2]; […] MSM, hour 72",8.66 log
same,Growth of Lactobacillus acidophilus in Milk fortified with MSM average,"[2]; […] MSM, hour 80",9.74 log
same,Growth of Lactobacillus acidophilus in Milk fortified with MSM average,"[2]; […] MSM, hour 96",10.25 log
same,Growth of Lactobacillus acidophilus in Milk fortified with MSM average,"[2]; […] MSM, hour 104",9.63 log
same,"log increase in growth, hour 0 to hour 8","[2]; milk fortified with MSM (all concentrations), minimum",≥ 1.73 log
same,increase over Acidophilus milk growth at Day 14,[2]; milk fortified with MSM (concentrations not given),0.86 logs and 1.3 logs
same,reduction of viability,Streptococcus Pneumonia,approximately 5%
